Experimental data as given in patent publication US20240301319A1, “PERFUMING COMPOSITIONS” (FIRMNICH SA, priority 2017, published 2024).

Experiments:
[1] = Volatility of perfuming compounds (Tables 4 to 10), with top/middle/bottom note type; assay type: physicochemical
How it was run: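 Volatility is expressed in μg/l in air. Top notes are 70,000 to 100 μg/l, middle notes 99 to 50 μg/l, and bottom notes 49 to 0.1 μg/l. Compounds are grouped by olfactive family: watery, green, fruity, citrus, sweet, gourmand and woody.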

[2] = Odor threshold and odor value of perfuming compounds (Tables 4 to 10)
[3] = Table 4, watery note, top, middle or bottom note
[4] = Table 4, watery note, equals volatility divided by odor threshold
[5] = note type (Top/Middle/Bottom) by volatility, perfuming compounds having a green note
[6] = perfuming compounds having a green note
[7] = Table 10, perfuming compounds having a woody note, note type by volatility
[8] = Table 6, perfuming compounds having a fruity note
[9] = Table 6, perfuming compounds having a fruity note, note type by volatility
[10] = Table 8, perfuming compounds having a sweet note

Volatility (μg/l air) ([1]; Table 4, watery note)	Type [1, 5]	Volatility (μg/l air) [1, 6] [μg/l air]	Compound	Type [1, 3]	Odor Threshold (μg/l air) ([2]; Table 4, watery note)	Odor Value [2, 4]	Odor Threshold (μg/l air) [2, 6] [μg/l air]	further results
24.85			CC(C=O)Cc1ccc(C(C)C)cc1 (racemic) [(+−)-3-(4-isopropylphenyl)-2-methylpropanal]	bottom (perfuming compounds having a volatility ranging from 49 to 0.1 μg/l in air are referred to as “bottom notes”)	3.00E−03	8.28E+03		
0.70			(+−)-3-(4-hydroxy-4-methylpentyl)-3-cyclohexene-1-carbaldehyde (A) + (+−)-4-(4-hydroxy-4-methylpentyl)-3-cyclohexene-1-carbaldehyde (B)	bottom (perfuming compounds having a volatility ranging from 49 to 0.1 μg/l in air are referred to as “bottom notes”)	8.81E−05	7.92E+03		
	Top	23345.90	CCCCCC(=O)OC [METHYL HEXANOATE]				8.43E−02	Volatility [1, 8]: 23345.90 μg/l air; Type [1, 9]: TOP (perfuming compounds having a volatility ranging from 70,000 to 100 μg/l in air are referred to as “top notes”)

More lines, now with the values behind:

Compound	Volatility (μg/l air) ([1]; Table 4, watery note)	Type [1, 5]	Volatility (μg/l air) [1, 6] [μg/l air]	Type [1, 3]	Odor Threshold (μg/l air) ([2]; Table 4, watery note)	Odor Value [2, 4]	Odor Threshold (μg/l air) [2, 6] [μg/l air]	further results
CCCCCC#CC(=O)OC [METHYL 2-OCTYNOATE″]	472.01			TOP (perfuming compounds having a volatility ranging from 70,000 to 100 μg/l in air are referred to as “top notes”)	8.31E−04	5.68E+05		
CCC(C)(O)CCCC(C)C (racemic)		Top	421.15				3.45E−03	
CC(=O)O[C@@H]1CC2CC[C@]1(C)C2(C)C								Type [1, 7]: Top; Volatility ([1]; Table 10, woody note): 735.37 μg/l air; Odor Threshold ([2]; Table 10, woody note): 4.46E−02 μg/l air
CC(=O)O[C@@H]1CC[C@@H]2C(C)(C)CCC[C@@]2(C)C1 (racemic)								Type [1, 7]: Bottom; Volatility ([1]; Table 10, woody note): 14.41 μg/l air; Odor Threshold ([2]; Table 10, woody note): 4.19E−04 μg/l air
(A) + (+−)-3,5,6,6-tetramethyl-4-methylidene-2-heptanone (B) + (+−)-(4E)-3,4,5,6,6-pentamethyl-4-hepten-2-one (C) + (+−)-(3Z)-3,4,5,6,6-pentamethyl-3-hepten-2-one (D) + (+−)-(3E)-3,4,5,6,6-pentamethyl-3-hepten-2-one (E)								Volatility (μg/l air) ([1]; Table 7, citrus note): 659.22 μg/l air; Type ([1]; Table 7, citrus note, top, middle or bottom note): Top; Odor Threshold (μg/l air) ([2]; Table 7, citrus note): 7.24E−02 μg/l air; Odor Value ([2]; Table 7, citrus note, equals volatility divided by odor threshold): 9.11E+03
CC(=O)OCCC(C)CCC=C(C)C (centres unmarked) [3,7-DIMETHYL-6-OCTENYL ACETATE]								Volatility [1, 8]: 128.72 μg/l air; Type [1, 9]: TOP (perfuming compounds having a volatility ranging from 70,000 to 100 μg/l in air are referred to as “top notes”); Odor Threshold [2, 8]: 2.75E−02 μg/l air; Odor Value [2, 8]: 4.68E+03
CCCc1ccc2c(c1)OCC(=O)CO2 [7-PROPYL-2H,4H-1,5-BENZODIOXEPIN-3-ONE]	4.85	Bottom	4.85	bottom (perfuming compounds having a volatility ranging from 49 to 0.1 μg/l in air are referred to as “bottom notes”)	6.43E−05	7.54E+04	6.43E−05	
CCCCCC1CCCC1=O (racemic) [(+−)-2-pentylcyclopentanone]								Volatility [1, 8]: 560.22 μg/l air; Type [1, 9]: TOP (perfuming compounds having a volatility ranging from 70,000 to 100 μg/l in air are referred to as “top notes”); Volatility [1, 10]: 560.22 μg/l air; Type ([1]; Table 8, perfuming compounds having a sweet note, note type by volatility): Top; Volatility ([1]; Table 9, gourmand note): 560.22 μg/l air; Type ([1]; Table 9, perfuming compounds having a gourmand note, note type by volatility): Top; Odor Threshold [2, 10]: 1.28E−03 μg/l air; Odor Value [2, 10]: 4.38E+05; Odor Threshold ([2]; Table 9, gourmand note): 1.28E−03 μg/l air
CCCCC/C=C\CCC=O [(Z)-4-DECENAL]		Top	629.54				3.78E−05	
